# According to publication PMC10350917 (Journal of Medicinal Chemistry, 2023):
# Where “and” joins values, the source holds several entries; their conditions need not be identical. Identical values can stand only once.
# Legend:
# [1] = test system: ADC-30 in pBCSK(−) E. coli DH10B; experiment: Broth microdilution AST, ADC-30; type: cell-based; settings: Escherichia coli, E. coli DH10B ADC-30, MB076 fixed at 10 mg/L in combinations, FDC in iron-depleted broth
# Protocol: (§1) Susceptibility testing to standard antibiotics was performed by broth microdilution or agar dilution using an Oxoid replicator according to 2021 Clinical and Laboratory Standards Institute (CLSI) guidelines. MICs for CAZ, CTX, FEP, and TOL were determined using cation-adjusted Mueller Hinton MH broth, and MICs for FDC were done in iron-depleted cation-adjusted MH broth according to CLSI methods. MB076, S02030, and VAB were used at a fixed concentration of 10 mg/L. All MICs were interpreted according to the 2021 CLSI guidelines.[43]
# (§2) blaADC-7 pBCSK- was cloned and expressed in E. coli DH10B cells as previously described.[44] All other blaADC variants were synthesized by GenScript according to the blaADC-7 pBCSK- strategy, cloning into the XbaI/BamHI sites of the pBCSK- vector.
# [2] = test system: ADC-219 in pBCSK(−) E. coli DH10B; experiment: Broth microdilution AST, ADC-219; type: cell-based; settings: Escherichia coli, E. coli DH10B ADC-219, MB076 fixed at 10 mg/L in combinations, FDC in iron-depleted broth
# Protocol: as §1, §2
# [3] = test system: ADC-7 in pBCSK(−) E. coli DH10B; experiment: Broth microdilution AST, ADC-7; type: cell-based; settings: Escherichia coli, E. coli DH10B ADC-7, MB076 fixed at 10 mg/L in combinations, FDC in iron-depleted broth
# Protocol: as §1, §2
# [4] = test system: ADC-33 in pBCSK(−) E. coli DH10B; experiment: Broth microdilution AST, ADC-33; type: cell-based; settings: Escherichia coli, E. coli DH10B ADC-33, MB076 fixed at 10 mg/L in combinations, FDC in iron-depleted broth
# Protocol: as §1, §2
# [5] = test system: ADC-212 in pBCSK(−) E. coli DH10B; experiment: Broth microdilution AST, ADC-212; type: cell-based; settings: Escherichia coli, E. coli DH10B ADC-212, MB076 fixed at 10 mg/L in combinations, FDC in iron-depleted broth
# Protocol: as §1, §2
# [6] = test system: CC(=O)OCC1=C(C(=O)O)N2C(=O)[C@@H](NC(=O)Cc3cccs3)[C@H]2SC1; experiment: purified protein, by the assay type; settings: 50 mM NaH2PO4 pH 7.4, room temperature
# [7] = test system: O=C(Cc1cccs1)N[C@@H]1C(=O)N2C(C(=O)O)=C(/C=C/c3ccc([N+](=O)[O-])cc3[N+](=O)[O-])CS[C@H]12; experiment: purified protein, by the assay type; settings: 50 mM NaH2PO4 pH 7.4, room temperature
# [8] = test system: CO/N=C(\C(=O)N[C@@H]1C(=O)N2C(C(=O)[O-])=C(C[N+]3(C)CCCC3)CS[C@H]12)c1csc(N)n1; experiment: purified protein, by the assay type; settings: 50 mM NaH2PO4 pH 7.4, room temperature
# [9] = test system: CC(C)(O/N=C(\C(=O)N[C@@H]1C(=O)N2C(C(=O)[O-])=C(C[n+]3ccccc3)CS[C@H]12)c1csc(N)n1)C(=O)O; experiment: purified protein, by the assay type; settings: 50 mM NaH2PO4 pH 7.4, room temperature
# [10] = test system: CC(C)(O/N=C(\C(=O)N[C@@H]1C(=O)N2C(C(=O)[O-])=C(C[N+]3(CCNC(=O)c4ccc(O)c(O)c4Cl)CCCC3)CS[C@H]12)c1csc(N)n1)C(=O)O; experiment: purified protein, by the assay type; settings: 50 mM NaH2PO4 pH 7.4, room temperature
# [11] = test system: Cn1c(N)c(NC(=O)NCCN)c[n+]1CC1=C(C(=O)O)N2C(=O)[C@@H](NC(=O)/C(=N\OC(C)(C)C(=O)[O-])c3nsc(N)n3)[C@H]2SC1; experiment: purified protein, by the assay type; settings: 50 mM NaH2PO4 pH 7.4, room temperature
# [12] = molecular target: ADC-219 (Acinetobacter baumannii, UniProt A7Y407, G248D); type: biochemical; settings: substrate
# Protocol: (§3) Steady-state kinetic parameters were determined by combining pure enzyme with antibiotic substrates in 50 mM NaH2PO4, pH 7.4 at room temperature. Changes in absorbance were measured on a Cary 60 UV–Vis spectrophotometer (Agilent Technologies) and converted to velocity using the change in extinction coefficient specific to nitrocefin (ε482 = 17,400 M^–1·cm^–1), cephalothin (ε262 = 7660 M^–1·cm^–1), ceftazidime (ε260 = 8660 M^–1·cm^–1), cefotaxime (ε260 = 7500 M^–1·cm^–1), cefepime (ε260 = 750 M^–1·cm^–1), cefiderocol (ε259 = 9430 M^–1·cm^–1), and ceftolozane (ε254 = 6810 M^–1·cm^–1). Initial velocities were fit to the Michaelis–Menten equation yielding kcat and KM values. For ADC/substrate combinations in which the KM was too large to accurately determine both kcat and KM values, the initial velocities at kcat/KM values were calculated from linear fits of vo in low [S] ranges (<0.08 × KM).
# [13] = molecular target: ADC-212 (Acinetobacter baumannii, UniProt A8QIF8, A224D/INS243L/P244A); type: biochemical; settings: substrate
# Protocol: as §3
# [14] = molecular target: T1, ADC-33 (Acinetobacter baumannii, UniProt A7Y407)
# Protocol: as §3
# [15] = molecular target: T2, ADC-7 (Acinetobacter baumannii, UniProt Q6DRA1)
# Protocol: as §3
# [16] = molecular target: T3, ADC-162 (Acinetobacter baumannii, UniProt A0A2H4PPJ8); settings: substrate
# Protocol: as §3
# [17] = molecular target: T4, ADC-30 (Acinetobacter baumannii, UniProt A7XM81)
# Protocol: as §3
# [18] = test system: KPC-2; settings: ref [14],[25]; cited from earlier work
# [19] = molecular target: ADC variants; experiment: Inhibition kinetics, statement for all ADC variants; type: biochemical, Acinetobacter baumannii; settings: bound stated for all ADC variants of the study
# Protocol: (§4) For inhibition kinetics, utilizing nitrocefin (NCF) as a colorimetric substrate, the inhibition constant (Ki) of MB076 and S02030 BATSI with ADCs was determined using competition kinetics as previously described.[10],[25],[28],[34] The measurements of the initial velocities were performed with the addition of 100 μM NCF after a 3 min pre-incubation of the enzyme (2 nM) with increasing concentration of the inhibitor. […] The Ki value was corrected for the NCF affinity (KM values for each ADC variant listed in Table 1) with the Cheng–Prusoff[35] equation: [drawing 2]
# [20] = physchem; settings: buffer, pH 7.4
# Protocol: (§5) The in vitro stability of MB076 and S02030 was evaluated by incubating the compounds in both buffer (pH 7.4) and human plasma at 37 °C over 48 h. Half-lives (t1/2) were then calculated for each compound.
# (§6) Plasma and buffer stability samples were analyzed by monitoring the disappearance of the compounds using high-performance liquid chromatography-mass spectrometry (LC–MS) techniques.
# Standard solutions were prepared by adding the compound in DMSO (2.5 μM) to 0.1 M phosphate buffer pH 7.4 and MeOH. Solutions were vortexed, filtered, and analyzed by LC–MS (At=0). Samples were then prepared by adding a solution of the compound in DMSO (2.5 μM) to phosphate buffer pH 7.4 and incubating at 37 °C. At suitable time intervals, the reaction was stopped by the addition of MeOH. The solutions were vortexed and filtered. Degradation time courses were followed by LC–MS enabling the quantitation of compounds. Half-lives (t1/2) were calculated in Origin using a one-phase decay model with t1/2 = ln(2)/b, where b is the slope of a linear plot of natural logarithm (ln) of the remaining compound concentration (C) versus incubation time. Each condition was tested in triplicate.
# [21] = in vitro; settings: human, plasma, pH 7.4
# Protocol: as §5, §6
# Half-lives (t1/2) were calculated in Origin using a one-phase decay model with t1/2 = ln(2)/b, where b is the slope of a linear plot of natural logarithm (ln) of the remaining compound concentration (C) versus incubation time. Each condition was tested in triplicate.
# [22] = test system: SHV-1; settings: ref [14],[25]; cited from earlier work
# [23] = molecular target: T3, ADC-162; experiment: Inhibition kinetics (competition with nitrocefin), ADC-162; type: biochemical
# Protocol: as §4
# [24] = molecular target: T4, ADC-30; experiment: Inhibition kinetics (competition with nitrocefin), ADC-30; type: biochemical; settings: 100 μM nitrocefin, 3 min pre-incubation
# Protocol: as §4
# [25] = molecular target: T2, ADC-7; settings: ref [10]; cited from earlier work
# [26] = molecular target: T1, ADC-33; experiment: Inhibition kinetics (competition with nitrocefin), ADC-33; type: biochemical; settings: 100 μM nitrocefin, 3 min pre-incubation
# Protocol: as §4
compound,measurement,setting,value
CO/N=C(\C(=O)N[C@@H]1C(=O)N2C(C(=O)[O-])=C(C[N+]3(C)CCCC3)CS[C@H]12)c1csc(N)n1 [cefepime],MIC,[1],0.25 mg/L
same,MIC,[2],0.12 mg/L
same,MIC,[3],0.25 mg/L
same,MIC,[4],0.5 mg/L
same,MIC,[5],0.5 mg/L
ADC-162 (Acinetobacter baumannii),Km,"[6]; other: ADC-162, substrate",382.0 ± 26.4 µM
same,kcat,"[6]; other: ADC-162, substrate",656 ± 22.8 s⁻¹
same,kcat/Km,"[6]; other: ADC-162, substrate",1.72e+06 ± 180000 M⁻¹ s⁻¹
same,Km,"[7]; other: ADC-162, substrate",88.1 ± 8.06 µM
same,kcat,"[7]; other: ADC-162, substrate",591 ± 20 s⁻¹
same,kcat/Km,"[7]; other: ADC-162, substrate",6.71e+06 ± 840000 M⁻¹ s⁻¹
same,kcat/Km,"[8]; other: ADC-162, substrate",2800 M⁻¹ s⁻¹
same,kcat/Km,"[9]; other: ADC-162, substrate",3400 M⁻¹ s⁻¹
same,kcat/Km,"[10]; other: ADC-162, substrate",< 1000 M⁻¹ s⁻¹
same,kcat/Km,"[11]; other: ADC-162, substrate",< 1000 M⁻¹ s⁻¹
CO/N=C(\C(=O)N[C@@H]1C(=O)N2C(C(=O)O)=C(COC(C)=O)CS[C@H]12)c1csc(N)n1 [cefotaxime],MIC,[1],64 mg/L
same,MIC,[2],16 mg/L
same,MIC,[3],64 mg/L
same,kcat,[12],44.2 s^–1
same,kcat,[13],12.0 s^–1
same,MIC,[4],128 mg/L
same,kcat,[14],0.46 s^–1
same,Km,"[14]; ADC-33, substrate, 50 mM NaH2PO4 pH 7.4, room temperature",7.11 ± 1.05 µM
same,kcat,[15],0.048 s^–1
same,Km,"[15]; ADC-7, substrate, 50 mM NaH2PO4 pH 7.4, room temperature",1.23 ± 0.17 µM
same,kcat,[16],25.4 s^–1
same,Km,"[16]; 50 mM NaH2PO4 pH 7.4, room temperature",115 µM
same,kcat,[17],0.12 s^–1
same,Km,"[17]; ADC-30, substrate, 50 mM NaH2PO4 pH 7.4, room temperature",4.35 ± 1.81 µM
same,MIC,[5],128 mg/L
O=C(Cc1cccs1)N[C@@H](Cn1cc(C(=O)O)nn1)B(O)O [S02030],IC50,[18],0.08 µM
same,Ki,[19],< 1 µM
same,half-life,[20],8 h
same,half-life at 2.5 μM,[21],9 h
same,IC50,[22],0.13 µM
same,Ki,[23],0.16 ± 0.01 µM
same,Ki,[24],0.028 ± 0.002 µM
same,Ki,[25],0.0445 µM and 0.044 µM and 0.045 µM
same,Ki,[26],0.11 ± 0.004 µM
ADC-7 (Acinetobacter baumannii),Km,"[6]; other: ADC-7, substrate",204.2 ± 11.2 µM
same,kcat,"[6]; other: ADC-7, substrate",659 ± 16.6 s⁻¹
same,kcat/Km,"[6]; other: ADC-7, substrate",3.22e+06 ± 260000 M⁻¹ s⁻¹
same,Km,"[7]; other: ADC-7, substrate",57.5 ± 4.6 µM
same,kcat,"[7]; other: ADC-7, substrate",720 ± 18.6 s⁻¹
same,kcat/Km,"[7]; other: ADC-7, substrate",1.25e+07 ± 1.33e+06 M⁻¹ s⁻¹
same,kcat/Km,"[8]; other: ADC-7, substrate",6400 M⁻¹ s⁻¹
same,kcat/Km,"[9]; other: ADC-7, substrate",2000 M⁻¹ s⁻¹
same,kcat/Km,"[10]; other: ADC-7, substrate",< 1000 M⁻¹ s⁻¹
same,kcat/Km,"[11]; other: ADC-7, substrate",< 1000 M⁻¹ s⁻¹
